Counter-ions that a name gives are not always drawn.
Columns and labels:
human IDO1 = human IDO1 (Homo sapiens (Human), UniProt P14902); test: Inhibition activity on human IDO1 (enzyme assay, absorbance at 480 nm); format: biochemical; details: purified recombinant human IDO1, 1 hour at 37° C.; read-out: IC50 for inhibiting the activity of human IDO1
Procedure: Assay for Determining the Inhibition Activity of the Present Compounds on Human IDO1
Human IDO1 activity was tested in vitro by the following method.
This method is used to determine the inhibition effect of the compounds of the present invention on the activity of human IDO1.
The human IDO1 gene was transferred to Pet30a plasmid by gene cloning, and then transferred to competent Escherichia coli Rosseta. The IDO1 gene was scaled-up by culturing in liquid LB (Luria-Bertani) medium [which was prepared per liter according to “Molecular Cloning A Laboratory Manual” (J. Sambrook, D. W. Russell)]). The bacteria were collected and lysed by ultrasonic waves. The purified IDO1 was obtained by eluting from a column.
For testing, 24 μL of enzyme (IDO1) was diluted 100 times with 50 mM KPB to 2400 μL. The concentration of the enzyme solution was 2.6 ng/μL. A 96 well reaction plate (AXYGEN, PCR-96-FLT-C) (hereinafter referred to as the “reaction plate”) was added with the enzyme solution at 24 μL/well. The blank well was added with 24 μL of KPB [Preparation of KPB buffer (50 mM): 6.805 g of KH2PO4 was weighed using an analytical balance, and placed into a 1000 mL beaker, deionized water was added with a measuring cylinder to 900 ml, the pH was adjusted to 6.5 by 1M KOH, then the mixture was introduced into a 1 L measuring cylinder, and water was added to 1 L. It was stored at 4° C.]. Then, 1 μL of a compound or DMSO was added into the corresponding wells in the reaction plate. Preparation of solution A: 200 μL of 500 mM L-sodium ascorbate were added with 1050 μL of KPB, then the mixture was mixed uniformly for 3 seconds at the maximum speed in a turbine mixer. Solution B: 100 μL of 10 mM tryptophan were added with 100 μL of 100,000 unit/mL catalase, 5 μL of 10 mM methylene blue, and 1050 μL of KPB successively, then the mixture was mixed uniformly for 3 seconds at the maximum speed in a turbine mixer. Then, 1200 μL of solution A and 1200 μL of solution B were taken and mixed uniformly for 3 seconds at the maximum speed in a turbine mixer. The mixture was added to the reaction plate at 24 μL/well. The reaction plate was placed in a plate centrifuge and centrifuged for 15 seconds at the maximum speed, so that the reaction liquids converged to the bottom. The reaction mixture was mixed uniformly for 30 seconds on a shaker, and incubated for 1 hour at 37° C. in a constant temperature incubator. In the reaction plate, 30% (W/V) trichloroacetic acid was added at 10 μL/well, then the mixture was incubated for 15 minutes at 65° C. in an incubator. The reaction plate was centrifuged in a centrifuge for 5 minutes at 4700 RPM at room temperature. […] Then, 2% (W/V) 4-(dimethylamino)benzaldehyde/glacial acetic acid solution was added at 40 μL/well, and the mixture was mixed uniformly for 1 minute on a shaker at the maximum speed. After incubation for 2 minutes at room temperature, the absorbance at 480 nm was read on a Synergy HT (BIOTEK) reader.
The inhibition activity of the compounds of the present invention on human IDO1 was tested by the assay described above.

IDO in HeLa cells = IDO in HeLa cells (Homo sapiens (Human), UniProt P14902); test: Inhibition activity on IDO in HeLa cells (INF-γ induced); format: cell-based; details: HeLa cells, INF-γ and tryptophan, 48 hours; read-out: IC50 for inhibiting the activity of IDO in HeLa cells
Procedure: Assay for Determining the Inhibition Activity of the Present Compounds on IDO in HeLa Cells
IDO activity in HeLa cells was tested in vitro by the following method.
This method is used to determine the inhibition effect of the compounds of the present invention on the activity of IDO in HeLa cells. (Note: indoleamine 2,3-dioxygenase (IDO) is expressed in the HeLa cell line and induced by interferon gamma (INF-γ)).
The supernatant was removed, serum-free DMEM high glucose medium was added at 90 μL/well, then the compounds contained in the culture medium with INF-γ and tryptophan were added at 10 μL/well (the final concentrations: 10000, 1000, 100, 10, 1, 0.1 nM). […] Then, 80 μL of the supernate was transferred from the 96-well cell culture plate to a 96 well round-bottomed plate, then 30% (W/V) trichloroacetic acid was added at 16 μL/well, then the mixture was incubated for 25 minutes at 65° C. in an incubator. The reaction plate was centrifuged in a centrifuge for 5 minutes at 4700 RPM. Then, 50 μL of the supernatant was transferred from the reaction plate to a 96-well flat-bottomed transparent plate by a multi-channel pipette. Then, 2% (W/V) 4-(dimethylamino)benzaldehyde/glacial acetic acid solution was added at 50 μL/well, then the mixture was mixed uniformly for 1 minute on a shaker. After incubation for 2 minutes at room temperature, the absorbance at 480 nm was read on a Synergy HT Reader.
The inhibition activity of the compounds of the present invention on IDO in HeLa cells was tested by the assay described above.

Chain of IDO in HeLa cells (P14902 whole entry): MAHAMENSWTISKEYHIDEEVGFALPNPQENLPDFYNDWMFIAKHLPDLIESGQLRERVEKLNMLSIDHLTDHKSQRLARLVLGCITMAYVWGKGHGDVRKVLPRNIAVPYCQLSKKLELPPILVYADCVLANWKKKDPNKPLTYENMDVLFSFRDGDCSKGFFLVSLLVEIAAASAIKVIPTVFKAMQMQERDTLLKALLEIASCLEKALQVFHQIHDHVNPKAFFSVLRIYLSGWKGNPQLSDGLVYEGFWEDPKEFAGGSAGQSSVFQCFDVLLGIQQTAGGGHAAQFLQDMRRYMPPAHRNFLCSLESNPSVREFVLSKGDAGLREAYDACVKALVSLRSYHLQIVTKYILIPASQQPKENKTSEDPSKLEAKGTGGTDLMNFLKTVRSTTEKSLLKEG
Chain of human IDO1 (P14902 whole entry): as above

| Compound | IC50 (human IDO1) [nM] | IC50 (IDO in HeLa cells) [nM] |
| --- | --- | --- |
| Fc1cccc(N2CCC(C3c4c(F)cccc4-c4cncn43)CC2)c1 (stereo not shown) [Example 3, 6-fluoro-5-(1-(3-fluorophenyl)piperidin-4-yl)-5H-imidazo[5,1-a]isoindole trifluoroacetate] | 71.7 | 167 |
| OCCn1cc(-c2ccc(N3CCC([C@H]4c5c(F)cccc5-c5cncn54)CC3)cc2)cn1 [Example 41, (S)-2-(4-(4-(4-(6-fluoro-5H-imidazo[5,1-a]isoindol-5-yl)piperidin-1-yl)phenyl)-1H-pyrazol-1-yl)ethanol] | 9.22 | 47.7 |

From patent US10899764B2, “Imidazo isoindole derivative, preparation method therefor and medical use thereof” (Jiangsu Hengrui Medicine Co., Ltd., priority 2015, dated 2021)
